In ChEMBL document CHEMBL1201862, “PubChem BioAssay data set” (2004):
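These data come from cells grown in 96-well plates and exposed to compound for 48 hours at five concentrations. At the GI50, growth is halved.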 The source made the active and inactive calls. Cut-off read from the data, not from the text of the source: active = GI50 up to about 1.1 µM and inactive = higher.

Tests used:
Assay in all cases: DTP human tumour cell line panel, 48 h
A498 = tested on: A498
COLO 205 = tested on: COLO 205
HCT-116 = tested on: HCT-116
HCT-15 = tested on: HCT-15
M14 = tested on: M14
MOLT-4 = tested on: MOLT-4
NCI-H23 = tested on: NCI-H23
OVCAR-3 = tested on: OVCAR-3
OVCAR-8 = tested on: OVCAR-8
SF-268 = tested on: SF-268
SK-MEL-28 = tested on: SK-MEL-28
SK-MEL-5 = tested on: SK-MEL-5
SK-OV-3 = tested on: SK-OV-3
SN12C = tested on: SN12C
SNB-75 = tested on: SNB-75
U-251 = tested on: U-251
MCF7 = tested on: MCF7
NCI/ADR-RES = tested on: NCI/ADR-RES
MDA-MB-435 = tested on: MDA-MB-435

Structure (SMILES) | GI50 (A498) | GI50 (COLO 205) | GI50 (HCT-116) | GI50 (HCT-15) [µM] | GI50 (M14) | GI50 (MOLT-4) | GI50 (NCI-H23) | GI50 (OVCAR-3) | GI50 (OVCAR-8) | GI50 (SF-268) | GI50 (SK-MEL-28) | GI50 (SK-MEL-5) | GI50 (SK-OV-3) | GI50 (SN12C) | GI50 (SNB-75) | GI50 (U-251) | GI50 (MCF7) | GI50 (NCI/ADR-RES) | GI50 (MDA-MB-435)
CCCN1CN(C(C(=O)N[C@@H]2C(=O)N3C(C(=O)O)=C(C)CSC23)c2ccccc2)CSC1=S (some centres undefined) | > 100 µM (inactive) | 47.1 µM (inactive) | > 100 µM (inactive) | 42 | > 100 µM (inactive) | > 100 µM (inactive) | > 100 µM (inactive) | 68.1 µM (inactive) | > 100 µM (inactive) | > 100 µM (inactive) | > 100 µM (inactive) | > 100 µM (inactive) | > 100 µM (inactive) | > 100 µM (inactive) | > 100 µM (inactive) | > 100 µM (inactive) | – | – | –
CC(=O)OCC1OC(NC(=O)N(CCCl)N=O)C(OC(C)=O)C(OC(C)=O)C1OC(C)=O (centres undefined) | > 100 µM (inactive) | > 100 µM (inactive) | > 100 µM (inactive) | > 100 | – | > 31.6 µM (inactive) | > 100 µM (inactive) | > 100 µM (inactive) | > 100 µM (inactive) | > 80.9 µM (inactive) | > 100 µM (inactive) | > 31.6 µM (inactive) | > 100 µM (inactive) | > 100 µM (inactive) | 36.1 µM (inactive) | 98.4 µM (inactive) | > 100 µM (inactive) | > 100 µM (inactive) | –
O=C(O)COc1ccc(C(=O)/C(SS/C(C(=O)c2ccc(OCC(=O)O)c(Cl)c2Cl)=C2\C=C(c3ccccc3Cl)SS2)=C2/C=C(c3ccccc3Cl)SS2)c(Cl)c1Cl | 34.7 µM (inactive) | 17.6 µM (inactive) | 18 µM (inactive) | 21.7 | 28.2 µM (inactive) | 21.9 µM (inactive) | 22 µM (inactive) | 17.9 µM (inactive) | 23.7 µM (inactive) | 22 µM (inactive) | 20.6 µM (inactive) | 18.3 µM (inactive) | 44.1 µM (inactive) | 30.6 µM (inactive) | 35.1 µM (inactive) | 6.61 µM (inactive) | – | – | –
O=C(NO)C(=O)Nc1ccc(Cl)cc1[N+](=O)[O-] | > 100 µM (inactive) | > 100 µM (inactive) | > 100 µM (inactive) | > 100 | > 100 µM (inactive) | > 100 µM (inactive) | > 100 µM (inactive) | > 100 µM (inactive) | > 100 µM (inactive) | > 100 µM (inactive) | > 100 µM (inactive) | > 100 µM (inactive) | > 100 µM (inactive) | > 100 µM (inactive) | > 100 µM (inactive) | > 100 µM (inactive) | – | – | –
CC(C)(O)[C@H](CCO)O[Si](c1ccccc1)(c1ccccc1)C(C)(C)C | 16.5 µM (inactive) | 14.4 µM (inactive) | 4.9 µM (inactive) | 8.22 | 12.2 µM (inactive) | 4.25 µM (inactive) | > 10 µM (inactive) | 11.1 µM (inactive) | 10.9 µM (inactive) | 10.5 µM (inactive) | 15.2 µM (inactive) | 14.2 µM (inactive) | 12.1 µM (inactive) | 4.11 µM (inactive) | 10.9 µM (inactive) | 12.4 µM (inactive) | – | – | –
Nc1nc(N)c2ncn(CC(CO)CC(c3ccccc3)P(=O)(O)O)c2n1 (centres undefined) | > 100 µM (inactive) | > 100 µM (inactive) | > 100 µM (inactive) | > 100 | 2.43 µM (inactive) | > 100 µM (inactive) | > 100 µM (inactive) | > 100 µM (inactive) | > 100 µM (inactive) | > 100 µM (inactive) | > 100 µM (inactive) | > 100 µM (inactive) | > 100 µM (inactive) | > 100 µM (inactive) | > 100 µM (inactive) | > 100 µM (inactive) | – | – | –
CCOc1ccc(NC(=O)C(=O)CC(=O)c2c[n+]([O-])c3cc(C)c(C)cc3[n+]2[O-])cc1 | > 100 µM (inactive) | > 100 µM (inactive) | > 100 µM (inactive) | > 100 | > 100 µM (inactive) | > 100 µM (inactive) | > 100 µM (inactive) | > 100 µM (inactive) | > 100 µM (inactive) | > 100 µM (inactive) | > 100 µM (inactive) | > 100 µM (inactive) | > 100 µM (inactive) | > 100 µM (inactive) | > 100 µM (inactive) | > 100 µM (inactive) | – | – | –
COc1ccc(C2C=C(c3ccc(C)cc3)N(c3ccc(OC)cc3[N+](=O)[O-])C3C(=O)OC(=O)C23)c(OC)c1 (centres undefined) | 67 µM (inactive) | 43.1 µM (inactive) | 28.2 µM (inactive) | 33.5 | 34.3 µM (inactive) | 32.6 µM (inactive) | 52.4 µM (inactive) | 20.2 µM (inactive) | 16.2 µM (inactive) | 18.5 µM (inactive) | > 100 µM (inactive) | 64.6 µM (inactive) | 25 µM (inactive) | – | 20.2 µM (inactive) | 45.9 µM (inactive) | 42.5 µM (inactive) | – | 44.3 µM (inactive)
OC1CCC[C@@H]1Sc1ccccc1 (some centres undefined) | > 100 µM (inactive) | > 100 µM (inactive) | > 100 µM (inactive) | > 100 | > 100 µM (inactive) | > 100 µM (inactive) | > 100 µM (inactive) | > 100 µM (inactive) | > 100 µM (inactive) | > 100 µM (inactive) | > 100 µM (inactive) | > 100 µM (inactive) | > 100 µM (inactive) | > 100 µM (inactive) | > 100 µM (inactive) | > 100 µM (inactive) | – | – | –
COC1=C(N)C(=O)c2nc(C)ccc2C1=O | 1.89 µM (inactive) | 1.79 µM (inactive) | 1.94 µM (inactive) | 1.92 | 1.88 µM (inactive) | 5.85 µM (inactive) | 1.47 µM (inactive) | 2.02 µM (inactive) | 3.93 µM (inactive) | 2.11 µM (inactive) | 1.82 µM (inactive) | 1.7 µM (inactive) | 8.04 µM (inactive) | 1.82 µM (inactive) | 2.03 µM (inactive) | 2.2 µM (inactive) | – | – | –
CC1=CC2=C(C)C3(CC3)[C@@](C)(O)C(=O)C2=C1 | 0.241 µM (active) | 0.221 µM (active) | 0.171 µM (active) | 0.193 | 0.171 µM (active) | > 1 µM (active) | 0.0822 µM (active) | 0.182 µM (active) | 0.211 µM (active) | 0.133 µM (active) | 0.194 µM (active) | 0.122 µM (active) | 0.293 µM (active) | 0.231 µM (active) | 0.19 µM (active) | 0.209 µM (active) | – | – | –
COc1cc(/C=C(\C)c2ccc3c(c2)OCO3)cc(OC)c1OC | 17.6 µM (inactive) | 18.5 µM (inactive) | 31.8 µM (inactive) | 26.1 | 36.7 µM (inactive) | 16.7 µM (inactive) | 37.5 µM (inactive) | 34.8 µM (inactive) | 29.8 µM (inactive) | 26.9 µM (inactive) | 41.1 µM (inactive) | 11.7 µM (inactive) | 28 µM (inactive) | 26.2 µM (inactive) | 5 µM (inactive) | 50.4 µM (inactive) | – | – | –
